Measurements from the supplement of paper PMC11061612.

Experiments:
SK-N-SH (Neuroblastoma) = assay: combination Emax (second highest fraction inhibited in the dose matrix, 72 h); higher = more inhibition; extreme values may be limits of the assay
Summary of the method: (§1)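 Cell lines in DMEM/F12 or RPMI with 10% FBS were plated in 1536-well plates, held 24 hours at 37°C, 5% CO2, then given two-drug dose matrices for 72 hours (DMSO typically 0.2%). Viability was read by CellTiter-Glo 2.0 luminescence and scaled as inhibition from 0 (vehicle wells) to 1 (blank wells). Combination Emax is the second-highest inhibition in the matrix; Bliss excess is observed combination effect minus expected EA + EB − EA·EB, EA and EB being single-agent effects.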

[1] = tested on: NAMALWA (Burkitt's Lymphoma); assay: as above
Summary of the method: as §1

[2] = tested on: COR-L88 (Small Cell Lung Carcinoma); assay: as above
Summary of the method: as §1

[3] = tested on: SNU-423 (Hepatocellular Carcinoma); assay: as above
Summary of the method: as §1

KALS-1 (Glioblastoma) = assay: as above
Summary of the method: as §1

[4] = tested on: KP-4 (Pancreatic Carcinoma); assay: as above
Summary of the method: as §1

[5] = tested on: LS-1034 (Colorectal Carcinoma); assay: as above
Summary of the method: as §1

[6] = tested on: SCC-4 (Oral Cavity Carcinoma); assay: as above
Summary of the method: as §1

[7] = tested on: T84 (Colorectal Carcinoma); assay: as above
Summary of the method: as §1

[8] = tested on: BxPC-3 (Pancreatic Carcinoma); assay: as above
Summary of the method: as §1

[9] = tested on: MDA-MB-415 (Breast Carcinoma); assay: as above
Summary of the method: as §1

[10] = tested on: SKG-IIIa (Cervical Carcinoma); assay: as above
Summary of the method: as §1

[11] = tested on: MS-1 (Small Cell Lung Carcinoma); assay: as above
Summary of the method: as §1

[12] = tested on: KP-4 (Pancreatic Carcinoma); assay: Bliss excess, mean over the matrix (fraction); higher = more synergy
Summary of the method: as §1

[13] = tested on: OAW-28 (Ovarian Carcinoma); assay: combination Emax (second highest fraction inhibited in the dose matrix, 72 h); higher = more inhibition; extreme values may be limits of the assay
Summary of the method: as §1

[14] = tested on: SNU-407 (Colorectal Carcinoma); assay: as above
Summary of the method: as §1

[15] = tested on: OAW-28 (Ovarian Carcinoma); assay: Bliss excess, mean over the matrix (fraction); higher = more synergy
Summary of the method: as §1

[16] = tested on: NCI-H1876 (Small Cell Lung Carcinoma); assay: as above
Summary of the method: as §1

[17] = tested on: NCI-H596 (Other Solid Carcinomas); assay: as above
Summary of the method: as §1

[18] = tested on: SNU-407 (Colorectal Carcinoma); assay: as above
Summary of the method: as §1
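Wherever Bliss excess, mean over the matrix is given: after 72 h of two-drug dosing.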

SMILES	combination Emax (SK-N-SH (Neuroblastoma))	combination Emax [1]	combination Emax [2]	combination Emax [3]	combination Emax (KALS-1 (Glioblastoma))	combination Emax [4]	combination Emax [5]	combination Emax [6]	combination Emax [7]	combination Emax [8]	combination Emax [9]	combination Emax [10]	combination Emax [11]	Bliss excess [12]	combination Emax [13]	combination Emax [14]	Bliss excess [15]	Bliss excess [16]	Bliss excess [17]	Bliss excess [18]
CS(=O)(=O)CCNCc1ccc(-c2ccc3ncnc(Nc4ccc(OCc5cccc(F)c5)c(Cl)c4)c3c2)o1 [Lapatinib] + Cn1cnc2c(F)c(Nc3ccc(Br)cc3Cl)c(C(=O)NOCCO)cc21 [Selumetinib] (first compound max 10 µM, 7x7, partner max 10 µM)	0.398	0.419	0.215	0.508	0.575	0.382	0.727	0.557	0.763	0.909	0.389	0.393	0.489	0.0641						
Cc1cc2ncnn2cc1Nc1ncc2c(n1)n(C1CCOCC1)c(=O)n2C [AZD7648] + COc1cc([C@@H]2c3cc4c(cc3[C@@H](O[C@@H]3O[C@@H]5CO[C@@H](C)O[C@H]5[C@H](O)[C@H]3O)[C@H]3COC(=O)[C@H]23)OCO4)cc(OC)c1O [Etoposide] (first compound max 10 µM, 7x7, partner max 10 µM)	0.945	0.985	0.36	0.555	0.787	0.878	0.335	0.469	0.398	0.223	0.483	0.551	0.842	0.122						
Cc1c2c(nn1C)CSCc1cc(n(C)n1)CSc1cc(c3ccccc3c1)OCCCc1c(C(=O)O)n(C)c3c-2c(Cl)ccc13 [AZD5991] + CC(=O)O[C@H]1C(=O)[C@@]2(C)[C@H]([C@H](OC(=O)c3ccccc3)[C@]3(O)C[C@H](OC(=O)[C@H](O)[C@@H](NC(=O)c4ccccc4)c4ccccc4)C(C)=C1C3(C)C)[C@]1(OC(C)=O)CO[C@@H]1C[C@@H]2O [Paclitaxel] (first compound max 1 µM, 7x7, partner max 3 µM)	0.926	1	0.515	0.672	0.951	0.965	0.587	0.868	0.701	0.686	0.838	0.487	0.867	-0.0288						
CN(CCO)CC[C@H](CSc1ccccc1)Nc1ccc(S(=O)(=O)NC(=O)c2ccc(N3CCC([C@@H](O)c4ccccc4-c4ccc(Cl)cc4)CC3)cc2)cc1S(=O)(=O)C(F)(F)F [AZD4320] + CS(=O)(=O)CCNCc1ccc(-c2ccc3ncnc(Nc4ccc(OCc5cccc(F)c5)c(Cl)c4)c3c2)o1 [Lapatinib] (first compound max 1 µM, 7x7, partner max 10 µM)	0.97	0.373	0.986	0.91	0.422	0.186	0.939	0.942	0.886	0.486	0.917	0.479	0.971	-0.0251						
CS(=O)(=O)CCNCc1ccc(-c2ccc3ncnc(Nc4ccc(OCc5cccc(F)c5)c(Cl)c4)c3c2)o1 [Lapatinib] + NC1(c2ccc(-c3nc4ccn5c(=O)[nH]nc5c4cc3-c3ccccc3)cc2)CCC1 [MK-2206] (first compound max 10 µM, 7x7, partner max 10 µM)	0.921	0.909	0.812	0.912	0.718	0.275	0.919	0.719	0.832	0.614	0.972	0.36	0.926	-0.0389	0.898	0.808	0.0285	0.0885	-0.045	0.0808
O=C(c1cc(Cc2n[nH]c(=O)c3ccccc23)ccc1F)N1CCN(C(=O)C2CC2)CC1 [Olaparib] + CN(CC[C@H](CSC1=CC=CC=C1)NC2=C(C=C(C=C2)S(=O)(=O)NC(=O)C3=CC=C(C=C3)N4CCC(CC4)[C@H](C5=CC=CC=C5C6=CC=C(C=C6)Cl)O)S(=O)(=O)C(F)(F)F)CCO [AZD4320] (first compound max 10 µM, 7x7, partner max 1 µM)	0.688	0.396	0.961	0.236	0.156	0.155	0.0945	0.338	0.122	0.148	0.553	0.137	0.636	-0.0113						
C[C@@H]1COCCN1c1cc(C2([S@](C)(=N)=O)CC2)nc(-c2ccnc3[nH]ccc23)n1 [AZD6738] + C1CC(C1)(C(=O)[O-])C(=O)[O-].N.N.[Pt+2] [Carboplatin] (first compound max 10 µM, 7x7, partner max 10 µM)	0.818	0.896	0.299	0.39	0.802	0.471	0.677	0.552	0.731	0.349	0.549	0.407	0.659	-0.0351						
Cc1nc(-c2cn3c(n2)-c2ccc(-c4cnn(C(C)(C)C(N)=O)c4)cc2OCC3)n(C(C)C)n1 [Taselisib] + O=C(Nc1ccc2[nH]nc(-c3ccncc3)c2c1)[C@@H]1CCN(CC(=O)N2CCN(c3ccc(-c4ncccn4)cc3)CC2)C1 [SCH772984] (first compound max 10 µM, 7x7, partner max 5 µM)	0.72	0.65	0.229	0.82	0.927	0.776	0.72	0.911	0.96	0.956	0.846	0.633	0.48	0.215						
O=C(c1cc(Cc2n[nH]c(=O)c3ccccc23)ccc1F)N1CCN(C(=O)C2CC2)CC1 [Olaparib] + CC1(C)CCC(CN2CCN(c3ccc(C(=O)NS(=O)(=O)c4ccc(NCC5CCOCC5)c([N+](=O)[O-])c4)c(Oc4cnc5[nH]ccc5c4)c3)CC2)=C(c2ccc(Cl)cc2)C1 [Venetoclax] (first compound max 10 µM, 7x7, partner max 1 µM)	0.545	0.456	0.373	0.115	0.118	0.135	0.008	0.0794	0.065	0.148	0.179	0.147	0.453	-0.0331						
C[C@@H](Nc1cc(F)cc(F)c1)c1cc(C(=O)N(C)C)cc2c(=O)cc(N3CCOCC3)oc12 [AZD8186] + C1CN(CCC1(C(=O)N[C@@H](CCO)C2=CC=C(C=C2)Cl)N)C3=NC=NC4=C3C=CN4 [AZD5363] (first compound max 10 µM, 7x7, partner max 10 µM)	0.364	0.485	0.171	0.416	0.398	0.249	0.294	0.383	0.337	0.323	0.834	0.303	0.223	-0.0583						
